Reference: US10138242B2, “Pyrazolopyridine derivatives and their use in therapy” (HELMHOLTZ ZENTRUM MUENCHEN—DEUTSCHES FORSCHUNGSZENTRUM FUER …, priority 2015, dated 2018)

Experiments:
[1] = system: PEX5-PEX14 complex (biotin-coupled PEX5 peptide, His-tagged T. brucei PEX14); assay: biochemical; format: binding; conditions: 30 nM PEX5, 30 nM PEX14; quadruplicate; read-out: AlphaScreen EC50 [μM] (±SD)
Description: (§1) The assay uses two types of beads: donor beads are coupled with streptavidin, and acceptor beads are coupled with an anti His-tag antibody. Upon excitation with light of a wavelength of 680 nm the donor beads produce reactive oxygen species that travel in solution only for a limited distance. If the acceptor beads are within that travel distance, it will absorb the reactive oxygen and emit light in the range of 520-620 nm. […] Thus, PEX5-PEX14 complex dissociation by a ligand caused decrease in light emission as the donor and acceptor beads were separated. Typically, we used 30 nM PEX5, 30 nM PEX14 and bead concentrations of 5 μg/mL. The PEX5-PEX14 complex was incubated with varying concentrations of inhibitor for 1 hour. Next, the beads were added and the system allowed to equilibrate for another hour. The raw data were fitted to four parameter sigmoidal curves by Origin software and EC50 values calculated. Each measurement was performed in quadruplicate and every experiment was accompanied with blank and reference samples (using non-biotynylated PEX5 peptide as a binding competitor).

[2] = target: PEX5-PEX14 complex (biotin-coupled PEX5 peptide, His-tagged T. brucei PEX14) (Trypanosoma brucei brucei, UniProt Q38CL4); assay: biochemical; format: binding; conditions: 30 nM PEX5, 30 nM PEX14; quadruplicate; read-out: AlphaScreen EC50 [μM] (±SD)
Description: as §1

[3] = system: T. brucei brucei bloodstream form parasites (strain Lister 427); assay: Antitrypanosomal activity assay (resazurin; FIG. 2); format: cell-based; conditions: Trypanosoma brucei; 66 h + 6 h resazurin
Protocol: (A) The trypanosoma cell count and growth were evaluated at different doses of compounds of the invention.
Antitrypanosomal activity was tested on T. brucei brucei bloodstream from parasites (strain—Lister 427, VATMITat 1.2). Stock solutions of compounds (50 mM) were prepared in DMSO. Two fold serial dilutions of each compound (10 wells in each row) were prepared in 96 well plates in HMI111 medium (100 μl/well; quadruplicates; cf. also Hirumi et al., J. Parasitol. 75 (1989), 985-989). One well without compound, and one well with media alone were included in each row. […] The plates were incubated for 66 hours at 37° C. in the incubator with 5% CO2. 20 μl resazurin (Sigma, 0.125 mg/ml in Hanks Balanced Salt Solution) was added to all wells and the plate was further incubated for 6 hours. Change in color of resazurin (blue to pink) by living cells was measured with a 96 well plate reader (excitation at 530 nm, emission at 585 nm, filter cut-off: 570 nm). Percent inhibition values were calculated by setting the well without compound to “0% inhibition”.

PEX5-PEX14 complex (biotin-coupled PEX5 peptide, His-tagged T. brucei PEX14) (Trypanosoma brucei brucei, UniProt Q38CL4), sequence (Q38CL4 1-366, one chain of several): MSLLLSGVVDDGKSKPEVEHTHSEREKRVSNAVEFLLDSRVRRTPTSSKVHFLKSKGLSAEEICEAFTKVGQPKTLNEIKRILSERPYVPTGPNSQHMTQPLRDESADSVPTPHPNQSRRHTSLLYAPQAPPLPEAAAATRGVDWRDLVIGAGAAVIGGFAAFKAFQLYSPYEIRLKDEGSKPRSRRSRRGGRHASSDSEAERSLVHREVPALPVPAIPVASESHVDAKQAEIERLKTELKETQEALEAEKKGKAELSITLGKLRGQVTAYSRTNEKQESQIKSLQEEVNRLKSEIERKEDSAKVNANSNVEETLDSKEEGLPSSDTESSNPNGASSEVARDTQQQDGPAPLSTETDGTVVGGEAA

| EC50 [1] [µM] | SMILES | EC50 [2] [µM] | IC50 [3] [µM] |
| --- | --- | --- | --- |
| 52.9 | COc1ccc2c(OC)ccc(CN3CCc4c(c(C(=O)NCc5cccc6ccccc56)nn4CCO)C3)c2c1 [Compound 111] | – | – |
| – | COc1ccc(CN2CCc3c(c(C(=O)NCc4cccc5ccccc45)nn3CCN3CCOCC3)C2)c2ccccc12 [Compound 13] | 6.72 | 3.58 |
| – | O=C(NCc1cccc2ccccc12)c1nn(CCO)c2c1CN(Cc1cccc3c1OCO3)CC2 [Compound 54] | 84.4 | 19 |
| – | NCCn1nc(C(=O)NCc2cccc3ccccc23)c2c1CCN(Cc1ccc(Cl)c(Cl)c1)C2 [Compound 105] | 11.6 | 0.34 |
| – | COc1ccc(CN2CCc3c(c(C(=O)NCc4cccc5ccccc45)nn3Cc3ccccc3)C2)c2ccccc12 [Compound 17] | 10.5 | 2.56 |
| – | CCCc1ccc(CN2CCc3c(c(C(=O)NCc4cccc5ccccc45)nn3CCO)C2)cc1 [Compound 49] | 32.5 | 2.7 |
| – | COc1ccc(CN2CCc3c(c(C(=O)NCc4cccc5ccccc45)nn3-c3ccccc3)C2)c2ccccc12 [Compound 37] | 7.61 | 3.5 |
| – | COc1ccc2[nH]c(CN3CCc4c(c(C(=O)NCc5cccc6ccccc56)nn4CCO)C3)cc2c1 [Compound 110] | 43.8 | 2.6 |
| – | O=C(NCc1cccc2ccccc12)c1nn(CCO)c2c1CN(Cc1cccc3cccnc13)CC2 [Compound 45] | 53.8 | 10.7 |
| – | COc1ccc(CN2CCc3c(c(C(=O)NCc4cccc5ccccc45)nn3C3CN(C(=O)C(C)(C)C)C3)C2)c2ccccc12 [Compound 15] | 7.92 | 1.47 |
| – | COc1ccc(CN2CCc3[nH]nc(C(=O)NCc4cccc5ccccc45)c3C2)c2ccccc12 [Compound 5] | 16.5 | 3.4 |
| – | NCCn1nc(C(=O)NCc2cccc3ccccc23)c2c1CCN(Cc1ccc(Cl)cc1)C2 [Compound 103] | 10 | 0.18 |
| – | Cn1nc(C(=O)NCc2ccccc2)c2c1CCN(Cc1c[nH]c3cc(OCc4ccccc4)ccc13)C2 [Compound 11] | 22.1 | 1.1 |
| – | O=C(NCc1ccccc1)c1nn(CCO)c2c1CN(Cc1ccn(-c3ccccc3)c1)CC2 [Compound 27] | 196 | 39 |
| – | O=C(NCc1cccc2ccccc12)c1nn(CCO)c2c1CN(Cc1ccc(F)c3ccccc13)CC2 [Compound 115] | 121 | 5.9 |
| – | COc1ccc(CN2CCc3nn(CCO)c(C(=O)NCc4cccc5ccccc45)c3C2)c2ccccc12 [Compound 90] | 66.1 | 3.3 |
